Reference: ChEMBL document CHEMBL1201862, “PubChem BioAssay data set” (2004)
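Cells were grown in 96-well plates and exposed to each compound for 48 hours at five concentrations; endpoints were interpolated linearly between bracketing concentrations, or set to the highest concentration if not reached. Here, GI50 denotes the concentration required for 50% inhibition of growth.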 Active and inactive are the calls of the source. Rule as the data show it: active = GI50 up to about 1.1 µM and inactive = higher.

Key:
Test in all cases: NCI-60 cell line screen, 48 h
[1] = test system: SN12C
[2] = test system: NCI-H522
[3] = test system: SR
[4] = test system: UACC-257
[5] = test system: A498
[6] = test system: RXF 393
[7] = test system: SK-OV-3
[8] = test system: SF-295
[9] = test system: EKVX
[10] = test system: SNB-19
[11] = test system: OVCAR-8
[12] = test system: TK-10
[13] = test system: HOP-92
[14] = test system: SF-268
[15] = test system: SNB-75
[16] = test system: HCT-15
[17] = test system: HCT-116
[18] = test system: OVCAR-3

SMILES	GI50 [1]	GI50 [2]	GI50 [3]	GI50 [4]	GI50 [5]	GI50 [6]	GI50 [7]	GI50 [8]	GI50 [9]	GI50 [10]	GI50 [11]	GI50 [12]	GI50 [13]	GI50 [14]	GI50 [15]	GI50 [16]	GI50 [17]	GI50 [18]
Cc1cc(C)c(C(=O)O)c(SSc2cc(C)cc(C)c2C(=O)O)c1	> 100 µM (inactive)	> 100 µM (inactive)	> 100 µM (inactive)	> 100 µM (inactive)	> 100 µM (inactive)	> 100 µM (inactive)	> 100 µM (inactive)	> 100 µM (inactive)	> 100 µM (inactive)	> 100 µM (inactive)	> 100 µM (inactive)	> 100 µM (inactive)	> 100 µM (inactive)	> 100 µM (inactive)				
CCN1c2ccccc2C(C(SC)S(=O)(=O)c2ccc(C)cc2)c2c1[nH]c(=O)n(C)c2=O (stereo not given)	> 100 µM (inactive)	> 100 µM (inactive)		> 100 µM (inactive)	> 100 µM (inactive)		> 100 µM (inactive)	> 100 µM (inactive)	> 100 µM (inactive)	> 100 µM (inactive)	> 100 µM (inactive)	> 100 µM (inactive)	> 100 µM (inactive)	> 100 µM (inactive)	23.7 µM (inactive)	> 100 µM	> 100 µM (inactive)	> 100 µM (inactive)
O=C(CC1S/C(=N\c2ccccc2Cl)NC1=O)Nc1ccc(Cl)cc1 (stereo not given)	> 100 µM (inactive)		31.3 µM (inactive)	> 100 µM (inactive)	> 100 µM (inactive)	> 100 µM (inactive)	> 100 µM (inactive)	> 100 µM (inactive)	> 100 µM (inactive)	> 100 µM (inactive)		> 100 µM (inactive)		> 100 µM (inactive)		16.3 µM	> 100 µM (inactive)	
Clc1cc(Cl)c2ns[s+]c2c1Cl	> 100 µM (inactive)	> 100 µM (inactive)	> 100 µM (inactive)	> 100 µM (inactive)	> 100 µM (inactive)	> 100 µM (inactive)	> 100 µM (inactive)	> 100 µM (inactive)	> 100 µM (inactive)	> 100 µM (inactive)	> 100 µM (inactive)	> 100 µM (inactive)		> 100 µM (inactive)	43.4 µM (inactive)		> 100 µM (inactive)	> 100 µM (inactive)
CN(C)CCS/C(=N\c1ccccc1)n1cccc1	54.1 µM (inactive)	33.9 µM (inactive)	33.2 µM (inactive)	42.9 µM (inactive)		27.1 µM (inactive)	> 100 µM (inactive)	> 100 µM (inactive)		> 100 µM (inactive)	> 100 µM (inactive)	> 100 µM (inactive)	24 µM (inactive)	32.4 µM (inactive)	27.6 µM (inactive)	98.4 µM	> 100 µM (inactive)	> 100 µM (inactive)
CC1(OCc2ccccc2)C(=O)N2C1NCC2(C)C (stereo not given)	> 100 µM (inactive)		> 100 µM (inactive)	> 100 µM (inactive)	> 100 µM (inactive)	> 100 µM (inactive)		> 100 µM (inactive)	> 100 µM (inactive)	> 100 µM (inactive)	> 100 µM (inactive)	> 100 µM (inactive)		> 100 µM (inactive)	> 100 µM (inactive)	> 100 µM	> 100 µM (inactive)	> 100 µM (inactive)
O=C(NCCCCCCNC(=O)NC1OCC(O)C(O)C1O)NC1OCC(O)C(O)C1O (stereo not given)	> 100 µM (inactive)	> 100 µM (inactive)	> 100 µM (inactive)			> 100 µM (inactive)	> 100 µM (inactive)	> 100 µM (inactive)	> 100 µM (inactive)	< 0.01 µM (active)	> 100 µM (inactive)	> 100 µM (inactive)	> 100 µM (inactive)	> 100 µM (inactive)	64.9 µM (inactive)	> 100 µM	> 100 µM (inactive)	> 100 µM (inactive)
Cc1cc(N(CCC#N)CCC#N)ccc1/C=C\C(=O)Nc1ccccc1	> 100 µM (inactive)	> 100 µM (inactive)		> 100 µM (inactive)	> 100 µM (inactive)		> 100 µM (inactive)	86.1 µM (inactive)	> 100 µM (inactive)	> 100 µM (inactive)	> 100 µM (inactive)	> 100 µM (inactive)	> 100 µM (inactive)	97.1 µM (inactive)	> 100 µM (inactive)	0.887 µM	> 100 µM (inactive)	> 100 µM (inactive)
O=C(CC(=O)C(=O)Nc1ccccc1)CC(c1ccccc1)c1c(O)c2ccccc2oc1=O (stereo not given)		> 100 µM (inactive)			> 100 µM (inactive)	> 100 µM (inactive)	> 100 µM (inactive)	> 100 µM (inactive)	> 100 µM (inactive)	> 100 µM (inactive)		> 100 µM (inactive)	23.4 µM (inactive)	> 100 µM (inactive)	> 100 µM (inactive)	> 100 µM	> 100 µM (inactive)	> 100 µM (inactive)
C/C(CN1C(=O)c2ccccc2C1=O)=N\NS(=O)(=O)c1cccc(C(=O)O)c1	> 100 µM (inactive)	> 100 µM (inactive)	> 100 µM (inactive)	> 100 µM (inactive)	> 100 µM (inactive)		> 100 µM (inactive)	> 100 µM (inactive)	> 100 µM (inactive)	> 100 µM (inactive)	> 100 µM (inactive)	> 100 µM (inactive)		> 100 µM (inactive)	> 100 µM (inactive)	> 100 µM	> 100 µM (inactive)	> 100 µM (inactive)
COC(=O)[C@@H]1CCCCC[C@H]2C(CO)=C(C)C(=O)C12 (stereo not given in full)	> 100 µM (inactive)	> 100 µM (inactive)	> 100 µM (inactive)	> 100 µM (inactive)	> 100 µM (inactive)	> 100 µM (inactive)	> 100 µM (inactive)	> 100 µM (inactive)	> 100 µM (inactive)	> 100 µM (inactive)	> 100 µM (inactive)	> 100 µM (inactive)	> 100 µM (inactive)	> 100 µM (inactive)	> 100 µM (inactive)	> 100 µM	> 100 µM (inactive)	
Cc1cc(C)nc(NS(=O)(=O)c2ccc(NC(=O)c3ccc(Cl)c4c(Nc5ccc(S(=O)(=O)Nc6cc(C)on6)cc5)c5ccccc5nc34)cc2)n1	17.9 µM (inactive)	16.1 µM (inactive)		18.2 µM (inactive)	15.3 µM (inactive)	14.3 µM (inactive)	19.4 µM (inactive)	18.2 µM (inactive)	19 µM (inactive)	17 µM (inactive)	15.5 µM (inactive)	18.3 µM (inactive)	16.3 µM (inactive)	15 µM (inactive)	> 10 µM (inactive)		20.4 µM (inactive)	16.6 µM (inactive)
CC(=O)NNc1nc(C)c(C(=O)NNC(=O)C(=O)Nc2c(Cl)cc([N+](=O)[O-])cc2Cl)s1	42.7 µM (inactive)	> 10 µM (inactive)	30.5 µM (inactive)	26.6 µM (inactive)	21.6 µM (inactive)		48.5 µM (inactive)	34.8 µM (inactive)	44.2 µM (inactive)	43.8 µM (inactive)	34.1 µM (inactive)	41.4 µM (inactive)	19.5 µM (inactive)	29.7 µM (inactive)		40.4 µM	34.5 µM (inactive)	21 µM (inactive)
CCc1cccc(C(C)C)c1NC(=O)C(=O)CC(=O)c1c(C)[n+]([O-])c2ccccc2[n+]1[O-]	> 100 µM (inactive)	> 100 µM (inactive)			> 100 µM (inactive)	> 100 µM (inactive)	> 100 µM (inactive)		> 100 µM (inactive)	> 100 µM (inactive)	> 100 µM (inactive)	> 100 µM (inactive)	> 100 µM (inactive)	> 100 µM (inactive)	> 100 µM (inactive)	> 100 µM	> 100 µM (inactive)	
O=C1C[C@@H]2[C@@H](C=CC23CC3)N1O	> 100 µM (inactive)	> 100 µM (inactive)		> 100 µM (inactive)	> 100 µM (inactive)	> 100 µM (inactive)	> 100 µM (inactive)	> 100 µM (inactive)	> 100 µM (inactive)	> 100 µM (inactive)	> 100 µM (inactive)	> 100 µM (inactive)		> 100 µM (inactive)	> 100 µM (inactive)		> 100 µM (inactive)	
O=c1[nH]c(=O)n(C2CC(O)C(CO)O2)cc1OS(=O)(=O)C(F)(F)F (stereo not given)	> 100 µM (inactive)	> 100 µM (inactive)			> 100 µM (inactive)	> 100 µM (inactive)	> 100 µM (inactive)	> 100 µM (inactive)	> 100 µM (inactive)	> 100 µM (inactive)	> 100 µM (inactive)	> 100 µM (inactive)	> 100 µM (inactive)	> 100 µM (inactive)	> 100 µM (inactive)	> 100 µM	> 100 µM (inactive)	> 100 µM (inactive)
CO[C@@]1(c2ccccc2)O[C@H]2OCCC2[C@H]1c1ccc(Cl)cc1 (stereo not given in full)	51.5 µM (inactive)	16.4 µM (inactive)	29 µM (inactive)	22 µM (inactive)	25.5 µM (inactive)	17.7 µM (inactive)		21.3 µM (inactive)	24.7 µM (inactive)	40.1 µM (inactive)	33.7 µM (inactive)	40.8 µM (inactive)		56.9 µM (inactive)	28.8 µM (inactive)	36.1 µM	27.6 µM (inactive)	16.5 µM (inactive)
NCCCNCCCCN(CCCN)/[N+]([O-])=N\O	> 100 µM (inactive)		28.6 µM (inactive)	> 100 µM (inactive)		> 100 µM (inactive)		> 100 µM (inactive)	> 100 µM (inactive)	> 100 µM (inactive)	> 100 µM (inactive)		> 100 µM (inactive)	> 100 µM (inactive)	89.3 µM (inactive)	> 100 µM	> 100 µM (inactive)	> 100 µM (inactive)
